Reference: patent US7262336B2 (priority 2000, dated 2007)

Columns and labels:
Type in all cases: in vivo, rat
[1] = test system: Gαq mutant transgenic rats; test: Pilocarpine-induced cholinergic signs and convulsions in Gq transgenic rats
Method: Muscarinic cholinergic agonists produce a series of cholinergic signs (chromodacryrhea, salivation, diarrhea, hypoactivity, tremors, foaming, convulsions and death) at high doses via a Gαq modulated pathway. Studies were conducted with the muscarinic agonist pilocarpine to determine if muscarinic agonist activity was modified in the transgenic rats (FIG. 28). Studies were conducted with the muscarinic agonist pilocarpine to determine if muscarinic agonist activity was modified by acute lithium (FIG. 29 or chronic lithium (FIG. 30). Both acute and chronic lithium potentiated the cholinergic signs produced by pilocarpine.

[2] = test system: normal Sprague-Dawley rats; test: DOI lethality in normal rats (separate experiments); conditions: doses as high as 30 mg/kg
Method: Higher doses of DOI (3-10 mg/kg) were required to produce similar effects in line 11 (data not shown).

[3] = test system: Gαq mutant transgenic rats; test: DOI induced headshakes and lethality in Gq transgenic rats; conditions: for number of headshakes: 0.1 mg/kg
Method: (§1) In general, 10 male and 10 female heterozygotes of each line were compared with a similar number of wild-type littermate controls. Testing began at 7-8 weeks of age. Subjects were individually housed in hanging metal mesh cages with ad libitum access to food and water under a 12 h light/dark cycle. For Lines 76, 67, and 11 the subjects were maintained on powdered rodent chow for the duration of the study. Subjects from Lines 58 and 75 were adapted to powdered chow for the feeding studies and then maintained on that chow for the remainder of the study. Subjects were evaluated in a series of tests outlined below over a period of approximately 12 weeks.
Wild type and transgenic rats were injected ip with either vehicle or DOI (0.001, 0.01, 0.1, 1.0 mg/kg) and were then housed singly in clear Plexiglas chambers (10″×18″×8″) for observational studies. A trained observer counted the number of headshakes for each rat during 2 observation periods (0-30 min; 45-75 min).
Assessing the effect of the RGS insensitive Gαq mutant transgene on receptors coupled via Gαq to the IP3 pathway in transgenic rats was an interest. 5-HT2A agonists produce large increases in headshakes in rats via this pathway. DOI (−1[2,5-dimethoxy-4-iodophenyl]-2-aminopropane) is a 5-HT2A receptor agonist, which increases headshakes in rats, and it has been used to investigate this pathway (Wettstein et al., 1999). DOI administration was used herein to determine if 5-HT2A agonist activity was modified in transgenic rats; results are shown in FIG. 27.

[4] = test system: Gαq mutant transgenic rats; test: Stimulant-induced locomotor activity (d-amphetamine, phencyclidine) in Gq transgenic rats
Method: as §1
To complement the observations of motor activity obtained using the open field test, heterozygotes and wildtype littermate controls were evaluated for spontaneous locomotor activity using an automated data collection system and a more extended test period. Data in this test was collected in multiple time bins over the test period allowing for some assessment of both the exploratory activity level in a novel environment as well as the rate of habituation to that environment. Having habituated the subjects, a stimulant was administered to determine the responsiveness of these subjects to the stimulant using locomotor activity as a measure. In this study we used an indirect-acting dopamine agonist, d-amphetamine, and a NMDA excitatory amino acid antagonist, phencyclidine, to induce locomotion. The ability of d-amphetamine to increase motor activity is dependent on dopaminergic neurotransmission in the striatum, in particular the nucleus accumbens, but can be influenced by other neurotransmitters. The ability of phencyclidine to induce locomotor activity is dependent on changes in both dopamine and glutatmate neurotransmission (Adams and Moghaddam, J. Neurosci. 1998, 18:5545-54). The differences in locomotor activity observed under spontaneous and stimulant-induced conditions in heterozygotes vs. wildtype littermate controls are summarized in FIGS. 15 and 16.
Subjects were placed in activity monitors (Model RXYZCM16, Omnitech, Columbus, Ohio) equipped with infrared beams to detect movements on both the horizontal (16×16 in field) and vertical axes. The testing room was equipped with white noise. Following a 60 min habituation period during which activity was monitored for differences in spontaneous locomotor activity, each subject was treated with a dose of 1 mg/kg d-amphetamine ip and returned to the activity monitor. Activity induced by d-amphetamine was monitored for 2 h. On a separate occasion, these same subjects were placed in the activity monitors and allowed to habituate for 60 min. Following this re-habituation, each subject was treated with 10 mg/kg phencyclidine ip and monitored for activity for an additional 4 h. The doses of d-amphetamine and phencyclidine were selected based on other studies as doses that induce a hyperactive state in normal rats (see Adams and Moghaddam, supra; Krebs-Thomson et al., Fur. J. Pharmacol. 1998, 343:135-43). Data were analyzed using LSD following a 2-way ANOVA (transgene×time) with one repeated measure (time). Outcomes were determined significant at p<0.05.

[5] = test system: Gαq mutant transgenic rats; test: Food intake after RO 60-0175 in Gq transgenic rats vs wild-type littermates
Method: as §1
Wild-type and transgenic rats were maintained on powdered chow in their home cages. Rats were fasted for 24 h prior to evaluation of food intake. Food intake was measured at 2, 4, and 24 h timepoints following ip injection of vehicle, 1, or 1.7 mg/kg RO 60-0175. Experimental sessions were generally conducted on Tues and Fri with 24 h fasts initiating on Mon and Thurs. […] 5-HT2C agonists decrease food intake via a Gαq modulated pathway. Studies using the selective 5-HT2C agonist RO 60-0175 were conducted to determine if 5-HT2C agonist activity was modified in transgenic rats.
To account for the baseline differences in food intake between wild-type and transgenic rats, the effects of RO 60-0175 were calculated as a percentage of the vehicle food intake. The effects of 1.7 mg/kg RO 60-0175 were greater in both males and females for transgenic heterozygotes for lines 75 and 67 (FIG. 7). The effects of 1.0 mg/kg RO 60-0175 were greater in males of line 67 as well (data not shown). […] There was no change in the effects of RO 60-0175 in rats from lines 58, 76, or 11.

CC[C@@H]1C(=O)OC[C@@H]1Cc1cncn1C [Pilocarpine, pilocarpine]
Muscarinic Agonist (Pilocarpine) Convulsions, Death ([1]; Gαq mutant Transgenics, cell wraps: 3 of 3 lines tested conv and death (10–30 mg/kg)): 3 of 3 lines tested conv | Muscarinic Agonist (Pilocarpine) Induction of cholinergic signs ([1]; Gαq mutant Transgenics, cell wraps: 3 of 3 lines tested ↑ cholinergic signs): 3 of 3 lines tested ↑ | sensitivity of the transgenic rats to the muscarinic agonist ([1]; transgenic rats): increased sensitivity

COc1cc(CC(C)N)c(OC)cc1I (stereo not shown) [DOI, −1[2,5-dimethoxy-4-iodophenyl]-2-aminopropane]
lethality [2]: did not result in lethality | number of headshakes ([3]; line 67 male transgenic heterozygote rats): trend toward increased headshakes | number of headshakes ([3]; line 75 male transgenic heterozygote rats): increased | lethality ([3]; 1 mg/kg, transgenic rats from lines 58, 75, 67 and 76): found dead within 24 hours | 5-HT2A Agonist (DOI) Induction of Head Shakes ([3]; Gαq mutant Transgenics, cell wraps: 4 of 5 lines ↓ headshakes): 4 of 5 lines ↓ | 5-HT2A Agonist (DOI) Flattened Body Posture, Convulsions, Death ([3]; Gαq mutant Transgenics, cell wraps: FBP, conv and death at 1.0 mg/kg, higher doses required for line 11): 4 of 5 lines show FBP, | doses required to produce similar effects (lethality) ([3]; transgenic line 11): 3 to 10 mg/kg

c1ccc(C2(N3CCCCC3)CCCCC2)cc1 [PCP, phencyclidine]
locomotor activity induced by phencyclidine, heterozygotes vs wildtype ([4]; 10 mg/kg ip, Line 58 males, delayed in the onset): increase in locomotor activity | phencyclidine locomotor activity, heterozygotes vs wildtype ([4]; 10 mg/kg ip, Line 67 males): reduced | locomotor activity induced by phencyclidine, heterozygotes vs wildtype ([4]; 10 mg/kg ip, Line 76 females, Line 11 males and females, to a lesser degree Line 67 females): delayed hyperactivity | phencyclidine-induced activity, heterozygotes vs wildtype ([4]; 10 mg/kg ip, Line 76 male (p=0.07)): slight trend toward a similar reduction | Noncompetitive NMDA antagonist (PCP) Locomotor Activity ([4]; Gαq mutant Transgenics, cell wraps: 4 of 5 lines ↑ hyperactivity (delayed)): 4 of 5 lines ↑

C[C@H](N)Cc1ccccc1 [d-amph, d-amphetamine]
amphetamine-induced locomotor activity, heterozygotes vs wildtype ([4]; 1 mg/kg ip, males of Lines 58, 75, 67, 11 and females of Line 67, 76, 11, but not males of Line 76): reduced amphetamine-induced locomotor activity | Indirect DA agonist (d-amph) Locomotor Activity ([4]; Gαq mutant Transgenics, cell wraps: All lines ↓ hyperactivity): All lines ↓

C[C@H](N)Cn1ccc2cc(F)c(Cl)cc21 [RO 60-0175]
effect on food intake as percentage of vehicle food intake, transgenic vs wild-type ([5]; 1.0 mg/kg ip, line 75 females): greater in wildtype than in transgenic rats | effect on food intake as percentage of vehicle food intake, transgenic heterozygotes vs wild-type ([5]; 1.0 mg/kg ip, males of line 67): greater | effect on food intake as percentage of vehicle food intake, transgenic heterozygotes vs wild-type ([5]; 1.7 mg/kg ip, males and females, lines 75 and 67): greater | 5-HT2C Agonist (RO60-0175) Inhibition of Food Intake ([5]; Gαq mutant Transgenics, cell wraps: 2 of 5 lines ↑sensitivity to RO 60-0175): 2 of 5 lines | change in effect on food intake, transgenic vs wild-type ([5]; lines 58, 76, or 11): no change
